The results in this text go back to patent US9637477B2, “Therapeutic substituted pyrroles” (Allergan, Inc., priority 2014, dated 2017).

The term Ki denotes the dissociation constant of the complex between target and ligand, obtained from inhibition or displacement. The term EC50 denotes the concentration that produces a half-maximal response.

For assay [1], the target named is T1, EP2 (Homo sapiens, UniProt P43116). Nature of the assay: EP2 binding (Ki). The text has this:
(§1) US 2007/0129552, incorporated by reference herein in its entirety, describes the methods used to obtain the in vitro data in the table below.

Assay [2] deals with T2, EP4 (Homo sapiens, UniProt P35408). Nature of the assay: EP4 flipr functional assay. Format: cell-based.
Excerpt: as §1

Assay [3] concerns the target T1, EP2. The experiment in a line: EP2 cAMP assay. Format: cell-based.
Excerpt: as §1

Assay [4] deals with T1, EP2. The experiment in a line: EP2 flipr functional assay. Format: cell-based.
Excerpt: as §1

Assay [5] addresses T2, EP4. Nature of the assay: EP4 binding (Ki).
Excerpt: as §1

T1 sequence (P43116 whole entry): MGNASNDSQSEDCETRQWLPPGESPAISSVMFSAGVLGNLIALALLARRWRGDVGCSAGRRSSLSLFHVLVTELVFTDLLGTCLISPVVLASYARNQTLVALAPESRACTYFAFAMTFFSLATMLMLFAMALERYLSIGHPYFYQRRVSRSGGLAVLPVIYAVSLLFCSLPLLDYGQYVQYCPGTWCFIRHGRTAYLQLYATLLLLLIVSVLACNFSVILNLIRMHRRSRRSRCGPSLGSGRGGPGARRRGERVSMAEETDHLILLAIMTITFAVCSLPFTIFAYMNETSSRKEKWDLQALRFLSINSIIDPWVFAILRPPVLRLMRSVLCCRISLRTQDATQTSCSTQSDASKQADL
T2 sequence (P35408 whole entry): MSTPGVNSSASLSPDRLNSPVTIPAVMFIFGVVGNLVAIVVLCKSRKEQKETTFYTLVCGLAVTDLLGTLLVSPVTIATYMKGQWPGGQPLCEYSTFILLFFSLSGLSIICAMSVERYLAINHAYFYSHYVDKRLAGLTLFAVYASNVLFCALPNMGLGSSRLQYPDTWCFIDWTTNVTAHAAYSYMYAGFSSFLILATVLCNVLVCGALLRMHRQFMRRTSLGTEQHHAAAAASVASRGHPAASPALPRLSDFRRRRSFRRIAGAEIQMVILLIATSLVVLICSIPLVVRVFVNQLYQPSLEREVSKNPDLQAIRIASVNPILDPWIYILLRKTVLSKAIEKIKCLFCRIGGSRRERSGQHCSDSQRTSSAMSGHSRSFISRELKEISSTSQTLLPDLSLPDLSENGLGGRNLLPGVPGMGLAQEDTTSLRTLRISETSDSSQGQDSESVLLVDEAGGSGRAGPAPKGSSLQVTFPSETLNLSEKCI

Regarding `CCCCCCc1ccc(-c2cccn2CCCc2ccc(C(=O)O)s2)cc1` [Example 1, 5-(3-(2-(4-hexylphenyl)-1H-pyrrol-1-yl)propyl)thiophene-2-carboxylic acid], the Ki was found to be 23 nM at EP2 [1] and 2660 nM at EP4 [5]. Moreover, the EC50 was above 10000 nM at EP4 [2], 3 nM at EP2 [3] and 998 nM at EP2 [4].
